Experimental data published in publication PMC10044245, “Comparative Evaluation of Existing and Rationally Designed Novel Antimicrobial Peptides for Treatment of Skin and Soft Tissue Infections” (Antibiotics, 2023).
≈ marks a conversion by molar mass, not a printed value. Where a SMILES comes first, the peptide text is derived from it.

How the values were obtained:
E. coli = assay: microbe, parasite or virus in culture; assay type: cell-based, Escherichia coli; conditions: for MIC: Escherichia coli, 96-well plate, serial dilutions, 32 °C, 13–18 h, 200 rpm, OD 550 nm, lowest concentration preventing growth
Method: (§1) Quantification of the antimicrobial resistance against various AMPs was carried out by measuring the bacterial growth in the presence of peptides at serial dilutes in 96 well plates in a microplate (96-well plate) reader Infinite® M200 PRO Multimode Microplate Reader (Tecan, Maennedorf, Switzerland) according to our recent reports. All bacterial strains were incubated at 32 °C for 13–18 h at 200 rpm. Optical density measurements (λ = 550 nm) were taken automatically at 10 min intervals. Antimicrobial resistance activity was quantified as the minimum inhibitory concentration (MIC)—the lowest concentration of a peptide which prevents growth of bacterial cells.

P. aeruginosa = assay: microbe, parasite or virus in culture; assay type: cell-based, Pseudomonas aeruginosa; conditions: for MIC: Pseudomonas aeruginosa, 96-well plate, serial dilutions, 32 °C, 13–18 h, 200 rpm, OD 550 nm
Method: as §1

S. aureus = assay: microbe, parasite or virus in culture; assay type: cell-based, Staphylococcus aureus; conditions: for MIC: Staphylococcus aureus, 96-well plate, serial dilutions, 32 °C, 13–18 h, 200 rpm, OD 550 nm
Method: as §1

C. acnes = assay: microbe, parasite or virus in culture; assay type: cell-based, Cutibacterium acnes; conditions: for MIC: Cutibacterium acnes, 96-well plate, serial dilutions, 32 °C, 13–18 h, 200 rpm, OD 550 nm
Method: as §1

K. pneumonia = assay: microbe, parasite or virus in culture; assay type: cell-based, Klebsiella pneumoniae; conditions: for MIC: Klebsiella pneumoniae, 96-well plate, serial dilutions, 32 °C, 13–18 h, 200 rpm, OD 550 nm
Method: as §1

E. faecium = assay: microbe, parasite or virus in culture; assay type: cell-based, Enterococcus faecium
Method: as §1

[1] = tested on: BALB/c 3T3 murine fibroblast cell line; assay: Cytotoxicity, neutral red uptake assay; assay type: cell-based; conditions: for IC50, viability of Balb/c 3T3 cells: 48 h
Text: The BALB/c 3T3 murine fibroblast cell line was obtained from ATCC (American Type Culture Collection, Manassas, VA, USA). Primary human dermal fibroblasts were isolated by enzymatic digestion from skin biopsies in the Laboratory of Bioanalytical and Biodosimetry Methods, University of Latvia, in accordance with the approval of the Committee of Research Ethics of the Institute of Cardiology and Regenerative Medicine, University of Latvia. Cells were propagated in DMEM medium (Sigma, Irvine, UK), supplemented with 1% penicillin (100 U/mL)–streptomycin (100 μg/mL), and 10% calf serum (Sigma, St. Louis, MO, USA) for Balb/c 3T3 cell line and fetal bovine serum (Sigma, St. Louis, MO, USA) for primary dermal fibroblasts. All cultivations were performed in a humidified 5% CO2 atmosphere at 37 °C.
The cytotoxicity of the peptides was tested in the BALB/c3T3 cell line and primary dermal fibroblasts by the neutral red (NR) uptake assay. Cells were seeded in 96-well plates at a density of 5 × 10^3 cells per well. After 24 h of incubation, peptides in a concentration range of 3.9 to 500 μg/mL were added. Dilutions were made in a cell cultivation medium. Cultivation in the presence of extracts was performed for 48 h. Afterwards, plates were washed with phosphate-buffered saline (PBS) (Sigma, Irvine, UK), and a 25 µg/mL NR solution (Sigma, Irvine, UK) diluted in 5%-fetal-calf-serum-containing-media was added. After 3 h, incubation in a humidified 5% CO2 atmosphere at 37 °C, the plate was washed with PBS, and the NR taken up by viable cells was extracted using desorbing fixative (50% ethanol/1% acetic acid/49% water). Absorbance at 540 nm was measured using a microplate reader Tecan Infinite® 200 PRO (Tecan Group Ltd., Mannedorf, Switzerland). Cytotoxicity was expressed as a concentration-dependent reduction in the uptake of NR, compared to the untreated controls and calculated using the following equation: Cell viability (%)=Abs540nm(treatment)−Abs540nm(background)/Abs540nm(untreated control)−Abs540nm(background)×100%

## [H]/N=C(\N/C(=N/[H])NCCCCCCNC(=N)NC(=N)Nc1ccc(Cl)cc1)Nc1ccc(Cl)cc1 [Chlorhexidine, chlorhexidine, reference compound]
E. coli
  MIC: 16 µg/mL (≈ 31.7 µM)
P. aeruginosa
  MIC: 1 µg/mL (≈ 1.98 µM)
S. aureus
  MIC: 1 µg/mL (≈ 1.98 µM)
C. acnes
  MIC: 1 µg/mL (≈ 1.98 µM)

## O=C(OOC(=O)c1ccccc1)c1ccccc1 [Benzoyl peroxide, reference compound]
E. coli
  MIC: 31 µg/mL (≈ 128 µM)
S. aureus
  MIC: 1250 µg/mL (≈ 5160 µM)
C. acnes
  MIC: 80 µg/mL (≈ 330 µM)

## CC[C@H]1OC(=O)[C@H](C)[C@@H](O[C@H]2C[C@@](C)(OC)[C@@H](O)[C@H](C)O2)[C@H](C)[C@@H](O[C@@H]2O[C@H](C)C[C@H](N(C)C)[C@H]2O)[C@](C)(O)C[C@@H](C)CN(C)[C@H](C)[C@@H](O)[C@]1(C)O [Azythromycin, Azithromycin dihydrate, reference compound]
K. pneumonia
  MIC: 8 µg/mL
S. aureus
  MIC: 0.5 µg/mL

## CNC(C)C1CCC(N)C(OC2C(N)CC(N)C(OC3OCC(C)(O)C(NC)C3O)C2O)O1 (centres unmarked) [Gentamicin, gentamicin, reference compound]
E. coli
  MIC: 1 µg/mL (≈ 2.09 µM)
P. aeruginosa
  MIC: 0.25 µg/mL (≈ 0.523 µM)
K. pneumonia
  MIC: 0.25 µg/mL (≈ 0.523 µM)
E. faecium; Enterococcus faecium, 96-well plate, serial dilutions, 32 °C, 13–18 h, 200 rpm, OD 550 nm
  MIC: 1 µg/mL (≈ 2.09 µM)
S. aureus
  MIC: 0.25 µg/mL (≈ 0.523 µM)

## CC[C@H](C)[C@H](NC(=O)[C@H](CCCNC(=N)N)NC(=O)[C@H](CCCCN)NC(=O)[C@H](C)NC(=O)[C@@H](NC(=O)[C@@H](N)CCCCN)[C@@H](C)CC)C(=O)N[C@@H](Cc1c[nH]c2ccccc12)C(=O)N[C@@H](CCCCN)C(=O)N[C@@H](CCCNC(=N)N)C(=O)N[C@H](C(=O)N[C@@H](Cc1c[nH]c2ccccc12)C(=O)N[C@@H](CCCCN)C(=O)N[C@H](C(=O)N[C@@H](CC(C)C)C(=O)N[C@@H](CCCNC(=N)N)C(=O)N[C@@H](CCCNC(=N)N)C(=O)N[C@@H](CCCNC(=N)N)C(=O)O)[C@@H](C)CC)[C@@H](C)CC [PA13, reference compound] (H-KIAKRIWKRIWKILRRR-OH)
E. coli
  MIC E. coli: 31.0 µg/mL (≈ 13.4 µM)
  Therapeutic Index E. coli: 8.5
P. aeruginosa
  MIC P. aeruginosa: 16.0 µg/mL (≈ 6.89 µM)
  Therapeutic Index P. aeruginosa: 16.4
K. pneumonia
  MIC K. pneumonia: 16.0 µg/mL (≈ 6.89 µM)
  Therapeutic Index K. pneumonia: 16.4
E. faecium
  MIC E. faecium: 4.0 µg/mL (≈ 1.72 µM)
  Therapeutic Index E. faecium: 65.5
S. aureus
  MIC S. aureus: 2.0 µg/mL (≈ 0.862 µM)
  Therapeutic Index S. aureus: 131.0
C. acnes
  MIC C. acnes: 16.0 µg/mL (≈ 6.89 µM)
  Therapeutic Index C. acnes: 16.4
[1]
  IC50, viability of Balb/c 3T3 cells: 262 µg/mL

## CC(C)[C@H](NC(=O)[C@H](Cc1ccc(O)cc1)NC(=O)[C@H](Cc1c[nH]c2ccccc12)NC(=O)[C@H](CS)NC(=O)[C@H](Cc1ccccc1)NC(=O)CN)C(=O)N[C@@H](CS)C(=O)N[C@@H](C)C(=O)N[C@@H](CCCNC(=N)N)C(=O)N[C@@H](CCCNC(=N)N)C(=O)N[C@@H](CC(N)=O)C(=O)NCC(=O)N[C@@H](C)C(=O)N[C@@H](CCCNC(=N)N)C(=O)N[C@H](C(=O)N[C@@H](CS)C(=O)N[C@@H](Cc1ccc(O)cc1)C(=O)N[C@@H](CCCNC(=N)N)C(=O)N[C@@H](CCCNC(=N)N)C(=O)N[C@@H](CS)C(=O)N[C@@H](CC(N)=O)C(=O)O)C(C)C [AA139, reference compound] (H-GFCWYVCARRNGARVCYRRCN-OH; N-terminus and C-terminus assumed)
E. coli
  MIC E. coli: 4.0 µg/mL (≈ 1.57 µM)
  Therapeutic Index E. coli: 157.0
P. aeruginosa
  MIC P. aeruginosa: 16.0 µg/mL (≈ 6.26 µM)
  Therapeutic Index P. aeruginosa: 39.3
K. pneumonia
  MIC K. pneumonia: 8.0 µg/mL (≈ 3.13 µM)
  Therapeutic Index K. pneumonia: 78.5
E. faecium
  MIC E. faecium: 16.0 µg/mL (≈ 6.26 µM)
  Therapeutic Index E. faecium: 39.3
S. aureus
  MIC S. aureus: 8.0 µg/mL (≈ 3.13 µM)
  Therapeutic Index S. aureus: 78.5
C. acnes
  MIC C. acnes: 63.0 µg/mL (≈ 24.7 µM)
  Therapeutic Index C. acnes: 10.0
[1]
  IC50, viability of Balb/c 3T3 cells: 627.5 µg/mL
[1]; Balb/c 3T3, at 500 μg/mL
  reduction of cell viability: 36%

## CC[C@H](C)[C@H](N)C(=O)N[C@@H](C)C(=O)N[C@@H](CCCCN)C(=O)N[C@@H](CCCCN)C(=O)N[C@@H](Cc1ccccc1)C(=O)N[C@@H](Cc1c[nH]c2ccccc12)C(=O)N1CCC[C@H]1C(=O)N[C@@H](CCCCN)C(=O)N[C@@H](Cc1ccccc1)C(=O)N[C@@H](Cc1c[nH]c2ccccc12)C(=O)N[C@@H](CCCCN)C(=O)N[C@@H](Cc1ccccc1)C(=O)N[C@@H](Cc1c[nH]c2ccccc12)C(=O)N[C@@H](CCCCN)C(=O)N[C@H](C(=O)N[C@@H](Cc1ccccc1)C(=O)N[C@@H](CCCCN)C(=O)N[C@@H](CCCCN)C(=O)N[C@H](C(=O)N[C@@H](C)C(=O)O)[C@@H](C)CC)[C@@H](C)CC [Peptide R13] (H-IAKKFWPKFWKFWKIFKKIA-OH)
E. coli
  Therapeutic Index E. coli: 19.8
P. aeruginosa
  MIC P. aeruginosa: 4.0 µg/mL (≈ 1.51 µM)
  Therapeutic Index P. aeruginosa: 19.8
K. pneumonia
  MIC K. pneumonia: 8.0 µg/mL (≈ 3.03 µM)
  Therapeutic Index K. pneumonia: 9.9
E. faecium
  MIC E. faecium: 16.0 µg/mL (≈ 6.06 µM)
  Therapeutic Index E. faecium: 4.9
S. aureus
  MIC S. aureus: 4.0 µg/mL (≈ 1.51 µM)
  Therapeutic Index S. aureus: 19.8
C. acnes
  MIC C. acnes: 0.3 µg/mL (≈ 0.114 µM)
  Therapeutic Index C. acnes: 263.3
[1]
  IC50, viability of Balb/c 3T3 cells: 79.37 µg/mL

## CC[C@H](C)[C@H](N)C(=O)N[C@@H](C)C(=O)N[C@@H](CCCCN)C(=O)N[C@@H](CCCCN)C(=O)N[C@@H](Cc1ccccc1)C(=O)N[C@@H](Cc1c[nH]c2ccccc12)C(=O)N[C@@H](CCCCN)C(=O)N[C@@H](CCCCN)C(=O)N[C@@H](Cc1ccccc1)C(=O)N[C@@H](Cc1c[nH]c2ccccc12)C(=O)N[C@@H](CCCCN)C(=O)N[C@@H](Cc1ccccc1)C(=O)N[C@@H](Cc1c[nH]c2ccccc12)C(=O)N[C@@H](CCCCN)C(=O)N[C@H](C(=O)N[C@@H](Cc1ccccc1)C(=O)N[C@@H](CCCCN)C(=O)N[C@@H](CCCCN)C(=O)N[C@H](C(=O)N[C@@H](C)C(=O)O)[C@@H](C)CC)[C@@H](C)CC [Peptide R12] (H-IAKKFWKKFWKFWKIFKKIA-OH)
E. coli
  MIC E. coli: 8.0 µg/mL (≈ 2.99 µM)
  Therapeutic Index E. coli: 2.0
P. aeruginosa
  MIC P. aeruginosa: 4.0 µg/mL (≈ 1.5 µM)
  Therapeutic Index P. aeruginosa: 4.0
K. pneumonia
  MIC K. pneumonia: 31.0 µg/mL (≈ 11.6 µM)
  Therapeutic Index K. pneumonia: 0.5
E. faecium
  MIC E. faecium: 16.0 µg/mL (≈ 5.99 µM)
  Therapeutic Index E. faecium: 1.0
S. aureus
  MIC S. aureus: 8.0 µg/mL (≈ 2.99 µM)
  Therapeutic Index S. aureus: 2.0
C. acnes
  MIC C. acnes: 0.5 µg/mL (≈ 0.187 µM)
  Therapeutic Index C. acnes: 32.0
[1]
  IC50, viability of Balb/c 3T3 cells: 16.18 µg/mL

## CC[C@H]1OC(=O)[C@H](C)[C@@H](O[C@H]2C[C@@](C)(OC)[C@@H](O)[C@H](C)O2)[C@H](C)[C@@H](O[C@@H]2O[C@H](C)C[C@H](N(C)C)[C@H]2O)[C@](C)(OC)C[C@@H](C)C(=O)[C@H](C)[C@@H](O)[C@]1(C)O [Claritromycin, clarithromycin, reference compound]
K. pneumonia
  MIC: 64 µg/mL (≈ 85.6 µM)
S. aureus
  MIC: 0.25 µg/mL (≈ 0.334 µM)
